Type in all cases: functional, cell-based
The test system of one experiment is HCT-116. Put plainly: Cytotoxicity against human HCT116 cells after 96 hrs by sulforhodamine B assay.
Experiment [1] in a line: Cytotoxicity against human 518A2 cells after 96 hrs by sulforhodamine B assay. In general terms: The SRB assay estimates cell density from bound dye.
Another experiment concerns SW480. As to the kind of experiment: Cytotoxicity against human SW480 cells after 96 hrs by sulforhodamine B assay.
In another experiment the test system is FaDu. As to the kind of experiment: Cytotoxicity against human FADU cells after 96 hrs by sulforhodamine B assay.
Another experiment has as its system DLD-1. As to the kind of experiment: Cytotoxicity against human DLD1 cells after 96 hrs by sulforhodamine B assay.
The next experiment deals with A549. As to the kind of experiment: Cytotoxicity against human A549 cells after 96 hrs by sulforhodamine B assay.
The next experiment has as its system 8505C. Put plainly: Cytotoxicity against human 8505C cells after 96 hrs by sulforhodamine B assay.
The next experiment concerns MCF7. Put plainly: Cytotoxicity against human MCF7 cells after 96 hrs by sulforhodamine B assay.
In a further experiment the test system is SW-1736. As to the kind of experiment: Cytotoxicity against human SW1736 cells after 96 hrs by sulforhodamine B assay.
Experiment [2] is described as follows: Cytotoxicity against human A253 cells after 96 hrs by sulforhodamine B assay.
The next experiment has as its system HT-29. As to the kind of experiment: Cytotoxicity against human HT-29 cells after 96 hrs by sulforhodamine B assay.
The next experiment has as its system A2780. As to the kind of experiment: Cytotoxicity against human A2780 cells after 96 hrs by sulforhodamine B assay.
Another experiment concerns HCT-8. Put plainly: Cytotoxicity against human HCT8 cells after 96 hrs by sulforhodamine B assay.
Experiment [3] is described as follows: Cytotoxicity against human Lipo cells after 96 hrs by sulforhodamine B assay.

The values below come from ChEMBL document CHEMBL1629466, “Synthesis and biological activity of some antitumor active derivatives from glycyrrhetinic acid” (Eur J Med Chem, 2010).

With `COC(=O)[C@@]1(C)CC[C@]2(C)CC[C@]3(C)C(=CC(=O)[C@@H]4[C@@]5(C)CC[C@H](O)C(C)(C)[C@@H]5CC[C@]43C)[C@@H]2C1`, the IC50 is 22.1 µmol in the experiment on HCT-116; 27.54 µmol in experiment [1]; 16.08 µmol in the experiment with SW480; 23.41 µmol in the experiment on FaDu; 26.12 µmol with DLD-1; 23.5 µmol in the experiment with A549. Besides, the IC50 was determined as 26.07 µmol in the experiment with 8505C; 22.14 µmol in the experiment with MCF7; 34.87 µmol in the experiment on SW-1736; 19.42 µmol in experiment [2]; 27.54 µmol in the experiment with HT-29; 25.54 µmol in the experiment on A2780. Moreover, the IC50 is 24.36 µmol in the experiment with HCT-8 and 20.47 µmol in experiment [3].
Regarding `COC(=O)[C@@]1(C)CC[C@]2(C)CC[C@]3(C)C(=CC(=O)[C@@H]4[C@@]5(C)CC[C@H](OC(=O)CNCCCCCN)C(C)(C)[C@@H]5CC[C@]43C)[C@@H]2C1`, the IC50 turned out to be 2.19 µmol in the experiment on HCT-116; 2.02 µmol in experiment [1]; 1.91 µmol in the experiment with SW480; 3.3 µmol in the experiment with FaDu; 2.4 µmol in the experiment with DLD-1; 2.52 µmol in the experiment on A549. Also, the IC50 worked out at 1.78 µmol with 8505C; 1.79 µmol in the experiment with MCF7; 2.69 µmol in the experiment on SW-1736; 2.27 µmol in experiment [2]; 1.28 µmol in the experiment on HT-29; 2 µmol in the experiment with A2780. The IC50 in the experiment with HCT-8 was 1.38 µmol; in experiment [3] it was 1.93 µmol.
With `CC1(C)[C@@H](O)CC[C@]2(C)[C@H]3C(=O)C=C4[C@@H]5C[C@@](C)(C(=O)O)CC[C@]5(C)CC[C@@]4(C)[C@]3(C)CC[C@@H]12` [ENOXOLONE], the IC50 stood at 78.83 µmol with HCT-116; 83.92 µmol in experiment [1]; 86.8 µmol with SW480; 84.55 µmol with FaDu; 81.21 µmol with DLD-1; 82.76 µmol with A549. For the same compound, the IC50 was found to be 86.5 µmol in the experiment on 8505C; 84.7 µmol with MCF7; 76.93 µmol in the experiment on SW-1736; 80.78 µmol in experiment [2]; 80.09 µmol in the experiment with HT-29; 74.57 µmol with A2780. In addition, the IC50 is 78.85 µmol in the experiment on HCT-8 and 81.44 µmol in [3].
For the compound `COC(=O)[C@@]1(C)CC[C@]2(C)CC[C@]3(C)C(=CC(=O)[C@@H]4[C@@]5(C)CC[C@H](OC(=O)CNCCCCN)C(C)(C)[C@@H]5CC[C@]43C)[C@@H]2C1`, the IC50 is 2.41 µmol in the experiment with HCT-116; 2.55 µmol in [1]; 2.54 µmol with SW480; 3.51 µmol in the experiment with FaDu; 2.66 µmol with DLD-1; 3.31 µmol in the experiment with A549. Also, the IC50 in the experiment with 8505C came out at 2.12 µmol; with MCF7 it was 2.45 µmol; in the experiment on SW-1736, 3.3 µmol; in experiment [2], 2.56 µmol; in the experiment on HT-29, 1.69 µmol; in the experiment with A2780, 2.43 µmol. Moreover, the figures for the IC50 (in the experiment with HCT-8; in experiment [3]) were 1.51 µmol and 2.57 µmol, respectively.
Consider `COC(=O)[C@@]1(C)CC[C@]2(C)CC[C@]3(C)C(=CC(=O)[C@@H]4[C@@]5(C)CC[C@H](OC(=O)CNCCCN)C(C)(C)[C@@H]5CC[C@]43C)[C@@H]2C1`, for which the IC50 was 4.3 µmol with HCT-116; 3.79 µmol in [1]; 3.68 µmol in the experiment on SW480; 5.57 µmol in the experiment on FaDu; 4.39 µmol in the experiment on DLD-1; 5.15 µmol in the experiment with A549. Further, the IC50 in the experiment on 8505C amounted to 3.37 µmol; in the experiment on MCF7 it was 3.55 µmol; in the experiment on SW-1736, 6.05 µmol; in experiment [2], 3.64 µmol; in the experiment on HT-29, 2.9 µmol; with A2780, 4.39 µmol. Further, the IC50 in the experiment on HCT-8 worked out at 2.37 µmol; in [3] it was 3.89 µmol.
In the case of `COC(=O)[C@@]1(C)CC[C@]2(C)CC[C@]3(C)C(=CC(=O)[C@@H]4[C@@]5(C)CC[C@H](OC(=O)CNCCCCCCCCCN)C(C)(C)[C@@H]5CC[C@]43C)[C@@H]2C1`, the IC50 in the experiment on HCT-116 is 3.44 µmol; in experiment [1] it was 3.12 µmol; in the experiment with SW480, 5.74 µmol; in the experiment on FaDu it was 5.54 µmol; in the experiment with DLD-1 it was 4.5 µmol; in the experiment with A549 it was 2.23 µmol. Further, the IC50 turned out to be 6.18 µmol in the experiment on 8505C; 3.33 µmol in the experiment on MCF7; 3.3 µmol in the experiment on SW-1736; 4.65 µmol in [2]; 2.06 µmol in the experiment with HT-29; 3.3 µmol with A2780. The IC50 in the experiment on HCT-8 came to 2.42 µmol; in experiment [3] it was 5.48 µmol.
For `COC(=O)[C@@]1(C)CC[C@]2(C)CC[C@]3(C)C(=CC(=O)[C@@H]4[C@@]5(C)CC[C@H](OC(=O)CNCCCCCCCN)C(C)(C)[C@@H]5CC[C@]43C)[C@@H]2C1`, the IC50 in the experiment with HCT-116 was 1.7 µmol; in experiment [1] it was 1.27 µmol; with SW480, 2.24 µmol; with FaDu, 2.2 µmol; with DLD-1, 1.25 µmol; in the experiment on A549, 2.21 µmol. Also, the IC50 was determined as 2.13 µmol in the experiment on 8505C; 0.98 µmol with MCF7; 2.24 µmol with SW-1736; 1.74 µmol in experiment [2]; 0.86 µmol in the experiment on HT-29; 1.14 µmol in the experiment with A2780. For the same compound, the IC50 with HCT-8 was found to be 0.89 µmol; in [3] it was 1.44 µmol.
Consider `COC(=O)[C@@]1(C)CC[C@]2(C)CC[C@]3(C)C(=CC(=O)[C@@H]4[C@@]5(C)CC[C@H](OC(=O)CCl)C(C)(C)[C@@H]5CC[C@]43C)[C@@H]2C1`, for which the IC50 with HCT-116 amounted to 5.13 µmol; in [1], 5.24 µmol; with SW480, 8.92 µmol; in the experiment with FaDu, 12.44 µmol; in the experiment on DLD-1, 6.13 µmol; with A549 it was 8.39 µmol. Besides, the IC50 in the experiment on 8505C was determined as 15.86 µmol; in the experiment on MCF7 it was 6.69 µmol; with SW-1736, 3.14 µmol; in [2] it was 6.19 µmol; in the experiment with HT-29 it was 5.34 µmol; in the experiment with A2780 it was 6.01 µmol. Also, the IC50 in the experiment on HCT-8 came out at 3.97 µmol; in [3], 14.55 µmol.
As for `COC(=O)[C@@]1(C)CC[C@]2(C)CC[C@]3(C)C(=CC(=O)[C@@H]4[C@@]5(C)CC[C@H](OC(=O)CNCCCCCCCCCCN)C(C)(C)[C@@H]5CC[C@]43C)[C@@H]2C1`, the IC50 turned out to be 3.86 µmol in the experiment on HCT-116; 4.33 µmol in experiment [1]; 4.73 µmol in the experiment on SW480; 5.65 µmol in the experiment on FaDu; 5.53 µmol with DLD-1; 5.16 µmol in the experiment with A549. The IC50 with 8505C came to 7.6 µmol; in the experiment with MCF7, 2.68 µmol; with SW-1736 it was 3.73 µmol; in [2], 5.48 µmol; in the experiment with HT-29 it was 2.73 µmol; with A2780, 3.63 µmol. The results for the IC50 (in the experiment with HCT-8; in experiment [3]) were 4.07 µmol and 6.93 µmol, respectively.
As for `COC(=O)[C@@]1(C)CC[C@]2(C)CC[C@]3(C)C(=CC(=O)[C@@H]4[C@@]5(C)CC[C@H](OC(=O)CNCCCCCCCCN)C(C)(C)[C@@H]5CC[C@]43C)[C@@H]2C1`, the IC50 came out at 3.53 µmol with HCT-116; 3.49 µmol in [1]; 3.93 µmol in the experiment on SW480; 4.26 µmol in the experiment on FaDu; 3.96 µmol in the experiment on DLD-1; 4.08 µmol in the experiment with A549. Also, the IC50 was found to be 3.35 µmol in the experiment on 8505C; 3.89 µmol with MCF7; 4.09 µmol in the experiment on SW-1736; 3.01 µmol in experiment [2]; 2.76 µmol in the experiment on HT-29; 2.8 µmol with A2780. Also, the results for the IC50 (with HCT-8; in experiment [3]) were 2.92 µmol and 4.36 µmol, respectively.
`CC1(C)[C@@H](OC(=O)CCl)CC[C@]2(C)[C@H]3C(=O)C=C4[C@@H]5C[C@@](C)(C(=O)O)CC[C@]5(C)CC[C@@]4(C)[C@]3(C)CC[C@@H]12`: the IC50 came out at 14.41 µmol with HCT-116; 25.43 µmol in [1]; 25.91 µmol in the experiment with SW480; 23.56 µmol in the experiment with FaDu; 17.36 µmol with DLD-1; 24.8 µmol in the experiment with A549. Further, the IC50 in the experiment with 8505C was determined as 26.08 µmol; in the experiment with MCF7, 25.11 µmol; with SW-1736 it was 16.42 µmol; in [2], 25.54 µmol; with HT-29 it was 16.91 µmol; in the experiment on A2780, 23.77 µmol. For the same compound, the IC50 in the experiment with HCT-8 was 13.39 µmol; in [3] it was 25.39 µmol.
